Data on seven molecules can be found in the Kinase Knowledgebase extract (Sharma et al. 2016).

Each structure is given as a SMILES string. Where only a bound is given, the exact number is not on record here.

For one experiment, the target named is EGFR (UniProt P00533).
The next experiment addresses EGFR (mouse) (UniProt P00533). To be noted: mk.

EGFR, sequence (P00533 whole entry, looked up): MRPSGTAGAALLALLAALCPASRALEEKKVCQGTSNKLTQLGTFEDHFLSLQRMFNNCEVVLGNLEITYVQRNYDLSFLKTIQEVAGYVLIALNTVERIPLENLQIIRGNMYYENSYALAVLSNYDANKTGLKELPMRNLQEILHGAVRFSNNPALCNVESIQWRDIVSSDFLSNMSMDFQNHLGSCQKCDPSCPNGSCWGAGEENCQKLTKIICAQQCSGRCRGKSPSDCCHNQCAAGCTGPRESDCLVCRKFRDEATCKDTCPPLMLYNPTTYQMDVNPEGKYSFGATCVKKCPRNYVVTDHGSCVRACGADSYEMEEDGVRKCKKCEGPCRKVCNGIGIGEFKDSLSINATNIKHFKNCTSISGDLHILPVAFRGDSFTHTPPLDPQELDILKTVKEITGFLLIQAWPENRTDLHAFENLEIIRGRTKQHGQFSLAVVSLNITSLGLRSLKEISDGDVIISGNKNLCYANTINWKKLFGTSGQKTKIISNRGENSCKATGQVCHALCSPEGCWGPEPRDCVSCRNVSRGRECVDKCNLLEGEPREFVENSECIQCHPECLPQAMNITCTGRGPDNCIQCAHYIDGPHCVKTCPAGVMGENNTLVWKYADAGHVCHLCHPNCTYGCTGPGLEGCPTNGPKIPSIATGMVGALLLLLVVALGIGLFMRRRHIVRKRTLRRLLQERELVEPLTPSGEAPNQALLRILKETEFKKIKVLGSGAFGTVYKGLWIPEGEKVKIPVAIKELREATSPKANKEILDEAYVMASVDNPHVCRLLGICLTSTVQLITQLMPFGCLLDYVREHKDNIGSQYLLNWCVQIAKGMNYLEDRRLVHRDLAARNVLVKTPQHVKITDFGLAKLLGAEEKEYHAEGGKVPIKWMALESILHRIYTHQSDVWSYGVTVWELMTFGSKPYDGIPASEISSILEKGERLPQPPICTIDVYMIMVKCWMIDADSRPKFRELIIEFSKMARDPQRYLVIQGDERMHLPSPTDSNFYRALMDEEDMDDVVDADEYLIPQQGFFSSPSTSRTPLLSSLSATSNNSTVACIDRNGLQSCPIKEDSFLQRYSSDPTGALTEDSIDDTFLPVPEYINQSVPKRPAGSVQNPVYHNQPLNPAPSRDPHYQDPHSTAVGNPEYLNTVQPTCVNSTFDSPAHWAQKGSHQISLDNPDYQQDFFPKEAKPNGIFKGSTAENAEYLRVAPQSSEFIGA

What is called IC50 is the concentration needed to halve the response being measured. Regarding `O=C1c2cc(O)cc(O)c2C(=O)c2c1cc(O)c(C1CCOC1=O)c2O` (centres undefined), the IC50 is 11 µM at EGFR and 35 µM with EGFR (mouse).

For `O=C1c2cc(O)cc(O)c2C(=O)c2c1cc(O)c(C(CO)CCO)c2O` (centres undefined), the IC50 against EGFR was determined as 21 µM; with EGFR (mouse), 22 µM.

`COC(=O)C(CCC(C)=O)c1c(O)cc2c(c1O)C(=O)c1c(O)cc(O)cc1C2=O` (centres undefined): the 50% inhibitory concentration (IC50) is 17 µM at EGFR and 28 µM with EGFR (mouse).

Consider `CC(=O)CCC(C(=O)O)c1c(O)cc2c(c1O)C(=O)c1c(O)cc(O)cc1C2=O` (centres undefined), for which the IC50 at EGFR was 21 µM; with EGFR (mouse), over 50 µM.

`O=C1c2cc(O)cc(O)c2C(=O)c2c1cc(O)c(CO)c2O`: the results for the concentration for half-maximal inhibition (IC50) at EGFR and with EGFR (mouse) were 6.7 µM and 10 µM, respectively.

For `O=C1c2cc(O)cc(O)c2C(=O)c2c1cc(O)c(C(CCO)C(=O)O)c2O` (centres undefined), the IC50 was 10.5 µM at EGFR and 16 µM with EGFR (mouse).

Consider `C[C@]12CC[C@@H](CO1)c1c(cc3c(c1O)C(=O)c1c(O)cc(O)cc1C3=O)O2`, for which the IC50 against EGFR worked out at 38 µM; in the experiment with EGFR (mouse) it was 18 µM.
